Assay results reported in patent EP4463162B1, “CONNEXIN 43 FOR USE IN TREATING BRCA1/2-MUTATED CANCER” (Fundación Profesor Novoa Santos, priority 2022, dated 2023).

What was measured:
HCC1937 cells = test: Colony formation assay; assay type: cell-based, human; conditions: 100 µM olaparib, seven days, upon Cx43 restitution
Procedure: For assessing the clonogenic capacity of tumour cells lines, they were plated as single-cell suspensions (5 000-10 000 cells) in 6 or 12-well plates (Corning) and incubated for 6-7 days with media change every 48 h. After this time, they were washed with PBS, fixed with 4 % PFA for 15 min at room temperature and stained with 0.1 % crystal violet dye (Sigma-Aldrich) for 20 min at room temperature. They were then rinsed with PBS, air dried and photographed. The staining was dissolved with 30 % acetic acid for 10 min on a shaker. The eluent was then transferred to a 96-well plate and the absorbance, indicative of colony growth, measured at 570 nm using a NanoQuant microplate reader Infinite M200 (Tecan).
For small extracellular vesicle (sEV) isolation, sEV donor cells were grown in 175 cm^2 flasks (Thermo Fisher Scientific) until 85 % confluence. […] Donor cells final density was calculated, and supernatants derived from the same number of cells were ultracentrifuged at 100 000 x g for 90 min at 4 °C using a Hitachi Ultracentrifuge CP100NX with a P70AT rotor (Hitachi). […]
Cell viability measures were either relativized to untreated controls for each cell line, in order to account for the already reduced proliferation of Cx43-restituted cells (left graph) or reported as raw absorbance values (right graph). […]

γH2AX (p-Ser139) = test: Western blot and immunofluorescence against γH2AX; assay type: cell-based, human; conditions: Cx43_HCC1937, 50/100 µM olaparib, 96 h, vs basal condition and same treatments in EV_HCC1937
Procedure: 2 000-10 000 cells were plated on glass coverslips (Thermo Fisher Scientific) previously coated with poly-D-lysine hydrobromide (Sigma-Aldrich) and cultured until they were approximately 80 % confluent. They were washed with PBS, fixed with 4 % paraformaldehyde (PFA, Sigma-Aldrich) in PBS for 15 min at room temperature and rinsed twice with PBS. Next, cells were incubated with 0.1 M glycine (Sigma-Aldrich) in distilled water to quench PFA for 10 min at room temperature, and then their membranes were permeabilized with 0.2 % Triton X-100 (Sigma-Aldrich) in PBS for 10 min at room temperature. After two 5 min PBS washes, potential nonspecific antibody binding sites were blocked with 1 % bovine serum albumin (BSA; Sigma-Aldrich) diluted in PBST (PBS+0.1 % Tween 20; Sigma-Aldrich) for 30 min at room temperature. Cells were incubated overnight at 4 °C in the dark with primary antibody (see references in Table 3) diluted in 1 % BSA in PBST. […]
Protein extracts were mixed with loading buffer, which consisted of 10 % (v/v) β-mercaptoethanol (Sigma-Aldrich), 10 % SDS, 50 % (v/v) glycerol, 200 mM Tris-HCl pH 6.8 and 0.1 % bromophenol blue (Sigma-Aldrich). […] Ponceau staining and western blot images were analysed and their band intensities quantitated with Image J software.

Q: `O=C(c1cc(Cc2n[nH]c(=O)c3ccccc23)ccc1F)N1CCN(C(=O)C2CC2)CC1` [Olaparib, olaparib] was tested. Which “cell viability (colony formation)” value (HCC1937 cells) did it give?
A: profound decrease in HCC1937 cell viability

Q: What about the “γH2AX (p-Ser139)” value (γH2AX (p-Ser139)) of the same compound?
A: significant γH2AX increase
